In series [1] the test system is aged rats. Nature of the series: 17-arm radial maze testing of aged rats. The series is classed as in vivo, rat. The note with it: 2 mg/kg 15 minutes prior to each daily trial, FIG. 4. The text has this:
The 17 arm radial maze requires animals to remember a baited set of 8 arms out of the 17 total arms. At the start of each daily trial, rats are placed in the center of the maze and permitted to choose among the 17 arms until all 8 food rewards are taken or until fifteen minutes elapse. Those animals that reach a performance criteria of 17 arm choices on two consecutive days of testing during the first 14 days of testing are continued in testing for an additional 30 days. For such animals, only data collected after day 14 are used in the statistical analyses. Statistical analyses are done on 3 sets of data. The first is a measure of general learning: the percent correct choices (entries into baited arms) over the first 8 arm choices. The second is a measure of short term memory (working memory) calculated from the first 12 arm choices: the percent of choices into baited arms (containing food) over the total number of choices within the baited set. Working memory, an interatrial measure of short term memory, measured the rat's ability to remember which of the arms in the baited set were previously entered and the food reward taken. The third set of data measured long-term or reference memory and also was calculated from the first 12 arm choices. Reference memory, defined as an inter-trial measure, is the percent correct choices in the baited set over the total number of arm choices. […]

In series [2] the test system is Male Sprague Dawley albino rats. In words: Passive avoidance behavior in nucleus basalis lesioned and unlesioned rats. The format is in vivo, rat. The note with it: for shift (increase) in potency by lesioning: lesioned vs unlesioned animals; for shift (increase) in potency by lesioning / potency in lesioned vs unlesioned animals: passive avoidance; for potency in lesioned vs unlesioned animals: FIGS. 1 and 2; for dose that interfered with training or behavior: after lesioning; for effective dose in passive avoidance behavior: i.p. 5 min before trial and testing. As for the experimental part:
Male Sprague Dawley albino rats were used for all studies and were maintained in departmental animal facilities, using NIH guidelines for care of animals. Where lesioned animals were tested, lesions were induced in anesthetized animals by bilateral infusion of ibotenic acid (5 μg in 1 μl) or phosphate buffered saline (PBS) into the nucleus basalis region.
For passive avoidance behavior, animals received a moderately strong shock (0.8 m Amp) for 1 second after entering a dark room. After 24 hours, the animals were again tested to determine if they could remember to stay out of the dark room. Animals were only allowed 5 minutes to make their choice, when they were removed from the lighted chamber. For testing the effects of drugs in animals that were not lesioned, shocks were only 0.5m Amp in intensity, and the animals were allowed 72 hours until they were tested after training. In all drug-treatment studies, the drugs were injected intraperitoneally in saline diluent 5 minutes before the trial and 5 minutes before the testing period.
The effect of (−)anabaseine on passive avoidance was also determined using unlesioned animals (FIG. 3). In these experiments (−)anabaseine was injected intraperitoneally 5 min. before training and testing in the passive avoidance apparatus. Only animals that trained within 300 sec the first time were used (i.e., those animals that entered the dark compartment and received a mild foot shock).

The test system of series [3] is brain tissue slices. In words: Aspartate release from brain tissue slices. The note with it: for aspartate release, dose relation: except at one low concentration, FIGS. 6 and 7. The text has this:
(§1) These different types of cerebral cortical transmitter systems have been tested. The first is the cholinergic; the procedures used to load cholinergic neurons or slices with newly synthesized [3H]ACh were described previously (Meyer, et al., 1987). The second is aspartate, an excitatory amino acid which, like glutamate, is associated with memory (long term potentiation) and neuropathology (e.g., stroke). The third type of neurotransmitter is GABA, which is the predominant transmitter in the cerebral cortex and is therefore very likely to receive cholinergic innervation.
(§2) In order to measure aspartate or GABA release, tissues were incubated with 100 nM [3H] aspartate or 250 nM [3h] GABA in Krebs Ringer buffer at 37° C. for 30 minutes, then washed them in ice cold buffer. All release-incubations were at 37° C. for 15 minutes in the presence or absence of 50 mM KCl (depolarization). Radiation accumulation was also measured in slices in order to express the released levels of transmitter as % of total transmitter, since slices were somewhat variable with respect to accumulation of label. K+ induced release of transmitter was determined by subtracting the basal release from that in the presence of the elevated K+, such that only the incremental release was determined.
The fact that nicotine […] without increasing basal release as well as K+ induced release is surprising. One hypothesis is that nicotine stimulates another type of neuron (presumably excitatory) to dis-inhibit the release of aspartate; this dis-inhibition would not be seen except when the aspartate neuron itself was activated by depolarization.

Series [4] has as its system isolated terminals (synaptosomes) of cerebral cortex. In words: Release of [3H]aspartate from isolated terminals.
Description: (§3) Neurotransmitter release from synaptosomes provides a potential marker for receptor-activity at different types of nerve terminals. Neurotransmitter release from intact slices or minces provides a marker for receptor activity at many sites on the neuron. A comparison of the effects of nicotine and other drugs on synaptosomes versus slices provides some idea as to the location of nicotinic receptors on different types of cerebral cortical neurons, as well as their cellular location.
as §1, §2
(§4) Neurotransmitter levels (aspartate, glutamate) and enzyme levels were assayed as described by Arendash, et al., Science, 238:952, 1987. […] ACh from synaptosomes. Also, no effect was seen on the release of [3H] aspartate from isolated terminals.

In series [5] the test system is cerebral cortical synaptosomes. Nature of the series: Release of newly synthesized [3H]ACh from synaptosomes.
Description: as §3, §1, §2, §4

Series [6] has as its system aged rats. In words: Lashley III maze testing of aged rats. The format is in vivo, rat. The note with it: aged animals, 2 mg/kg before training, first two blocks of tests, FIG. 5. The text has this:
The Lashley III maze tests an animal's ability to learn a series of left-right alternation turns. Six alternation errors are possible for any given daily trial; chance performance level is 3 errors per trial. Previous studies have shown that young adult sham operated animals quickly learn to reduce their number of alternation errors to near zero by the end of the test period. By contrast, 23 months old (Aged) sham operated animals made substantially more errors over the 25 days of testing. […] Therefore, both age- and lesion-induced learning deficits were observed. Nonetheless, all groups did improve their performance over time.
Aged animals injected with saline or DMAB-anabaseine were evaluated in the Lashley III maze (FIG. 5). […] This reflected an improvement in another memory-related behavior with this nicotine agonist.

The nature of series [7]: Water solubility (observation during synthesis). The format is physicochemical. As for the experimental part: The lithium enolate of 3nicotinoyl2-piperidone (4.94w) of step 1 was added slowly to a round bottom flask containing 30 mL of concentrated HCl which was chilled in an ice bath and stirred. The enolate was not readily soluble. The reaction mixture was heated at reflux under nitrogen overnight to effect the hydrolysis and decarboxylation. […] The reaction should not be diluted with too much aqueous acid or the product will not crystallize during the work up.

Series [8] deals with cortical slices. In words: [3H]ACh release from cortical slices.
Description: as §1, §2
This pattern was also observed with [3H]ACh release and [3H]GABA release from cortical slices. Nicotine (100 nM) increased the K+ induced release of ACh but reduced the K+induced GABA release from slices, while anabaseine (1 μM) had no effect on either process. […] Thus, it appears that the ability of nicotinic types of compounds to modulate neurotransmitter release is not mediated through one of the receptors with high affinity for anabaseine, or DMAB-anabaseine.

Series [9] concerns cortical slices. Nature of the series: [3H]GABA release from cortical slices.
Description: as §1, §2
This pattern was also observed with [3H]ACh release and [3H]GABA release from cortical slices. […]

Series [10] concerns vertebrate neuromuscular nicotinic acetylcholine receptors. The following applies: Kem, Amer.Zoologist, 25:99, 1985; cited from earlier work.
Sequence of vertebrate neuromuscular nicotinic acetylcholine receptors (P02708 21-457): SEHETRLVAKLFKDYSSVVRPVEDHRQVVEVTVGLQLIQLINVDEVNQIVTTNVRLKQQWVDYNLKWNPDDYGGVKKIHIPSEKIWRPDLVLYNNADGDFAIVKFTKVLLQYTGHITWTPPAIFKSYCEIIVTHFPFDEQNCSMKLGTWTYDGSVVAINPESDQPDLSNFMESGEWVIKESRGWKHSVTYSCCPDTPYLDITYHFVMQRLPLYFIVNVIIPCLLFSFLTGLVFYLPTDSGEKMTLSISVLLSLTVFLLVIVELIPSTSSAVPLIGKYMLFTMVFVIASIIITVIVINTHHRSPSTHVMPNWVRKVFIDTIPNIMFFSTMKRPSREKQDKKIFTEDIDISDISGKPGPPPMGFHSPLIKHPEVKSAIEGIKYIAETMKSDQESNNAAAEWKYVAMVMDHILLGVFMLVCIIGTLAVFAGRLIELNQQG
Sequence of vertebrate neuromuscular nicotinic acetylcholine receptors (P11230 24-501 partner): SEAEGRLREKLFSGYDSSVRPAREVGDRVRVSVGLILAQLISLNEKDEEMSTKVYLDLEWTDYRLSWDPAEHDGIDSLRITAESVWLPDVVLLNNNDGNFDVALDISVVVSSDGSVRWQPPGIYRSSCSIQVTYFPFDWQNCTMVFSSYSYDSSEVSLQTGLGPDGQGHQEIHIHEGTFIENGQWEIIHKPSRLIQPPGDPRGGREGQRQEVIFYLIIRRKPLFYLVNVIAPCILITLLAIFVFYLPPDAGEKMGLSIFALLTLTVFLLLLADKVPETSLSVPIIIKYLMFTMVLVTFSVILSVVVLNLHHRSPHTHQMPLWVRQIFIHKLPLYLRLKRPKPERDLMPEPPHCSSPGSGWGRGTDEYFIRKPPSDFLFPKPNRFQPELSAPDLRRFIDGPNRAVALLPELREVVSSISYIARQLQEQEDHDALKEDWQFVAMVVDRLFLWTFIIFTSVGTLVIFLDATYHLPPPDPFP
Sequence of vertebrate neuromuscular nicotinic acetylcholine receptors (Q07001 22-517 partner): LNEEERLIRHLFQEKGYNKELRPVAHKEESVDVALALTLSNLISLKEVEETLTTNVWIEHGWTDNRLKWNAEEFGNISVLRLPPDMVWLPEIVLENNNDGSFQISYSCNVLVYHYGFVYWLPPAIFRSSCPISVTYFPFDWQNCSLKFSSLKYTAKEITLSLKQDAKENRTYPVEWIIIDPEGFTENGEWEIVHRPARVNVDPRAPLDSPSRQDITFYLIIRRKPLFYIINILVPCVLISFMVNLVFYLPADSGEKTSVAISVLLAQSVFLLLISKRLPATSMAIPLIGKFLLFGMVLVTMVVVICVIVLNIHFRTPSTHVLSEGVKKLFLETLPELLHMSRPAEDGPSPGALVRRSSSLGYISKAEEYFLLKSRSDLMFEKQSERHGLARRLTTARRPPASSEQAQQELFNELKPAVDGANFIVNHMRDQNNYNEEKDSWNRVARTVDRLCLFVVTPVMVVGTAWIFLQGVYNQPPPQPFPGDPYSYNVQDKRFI
Setting [11] is: even in animals with reduced neocortical cholinergic activity.

Counter-ions that a name gives are not always drawn.

Take `CN(C)c1ccc(C=C2CCCN=C2c2cccnc2)cc1` [DMAB-anabaseine, 3-[p-(dimethylamino)benzylidene]-3,4,5,6-tetrahydro-2,3′-bipyridine]: in [1], the “measure of long term memory” value is listed as “improved” and the short term memory result was “without affecting”. In series [2] (setting [11]), the “effect on passive avoidance (memory-related) behavior” value (“effect on passive avoidance” for short) is recorded as “can improve this type of memory-related behavior”. In [2], the “shift (increase) in potency by lesioning” value is 2-2.5 fold and the “potency in lesioned vs unlesioned animals” value is reported as “more potent in lesioned then in unlesioned animals”. Moreover, the “aspartate release, dose relation” value in series [3] was “did not increase aspartate release in a dose-related manner”. In series [4], the “release of [3H]aspartate” value is “no effect”. In [5], the “50 mM KCl induced release of newly synthesized [3H]ACh” value (“50 mM KCl induced release” below) is given as “no effect” and the “basal release of newly synthesized [3H]ACh” value (shortened to “basal release”) is listed as “no effect”. Moreover, the “number of errors in the maze” value in [6] is “reduced the number of errors”.

As to `c1cncc(C2=NCCCC2)c1` [anabaseine dihydrochloride], the water solubility entry in series [7] is “very water soluble”.

For the compound `c1cncc(C2=NCCCC2)c1` [anabaseine, 2-(3-pyridyl)-3,4,5,6-tetrahydropyridine], the “K+ induced release of ACh” value in series [8] (1 μM) was “no effect”. Besides, the “K+ induced GABA release” value in series [9] (1 μM) is given as “no effect”. In series [2], the “dose that interfered with training or behavior” value is 0.2 mg/kg, the “shift (increase) in potency by lesioning” value is reported as ~2.5 fold and the “potency in lesioned vs unlesioned animals” value is given as “more potent in lesioned then in unlesioned animals”. In addition, the “effect on passive avoidance” value in [2] (setting [11]) was “can improve this type of memory-related behavior”. For the same compound, in series [2] (unlesioned animals, i.p. 5 min before training and testing (FIG. 3)), the “effect on passive avoidance” value is recorded as “can improve this type of memory-related behavior”. Further, the “activation of vertebrate neuromuscular nicotinic acetylcholine receptors” value in series [10] is recorded as “potent activator”. Moreover, the “aspartate release, dose relation” value in series [3] is “did not increase aspartate release in a dose-related manner”. Also, in [4], the “release of [3H]aspartate” value is “no effect”. In series [5], the “50 mM KCl induced release” value is reported as “no effect” and the “basal release” value is on record as “no effect”.

Take `CN1CCCC1c1cccnc1` (stereo not shown) [nicotine, reference compound]: the “basal ACh release” value in series [8] is “increased”. In addition, the “K+ induced release of ACh” value in series [8] (100 nM) is reported as “increased”. Besides, the “K+ induced GABA release” value in [9] (100 nM) is given as “reduced”. Also, the “dose that interfered with training or behavior” value in [2] amounted to 0.2 mg/kg. Further, in series [2] (nucleus basalis lesioned animals), the “effective dose in passive avoidance behavior” value is listed as 0.02 mg/kg. The “effective dose in passive avoidance behavior” value in series [2] (unlesioned animals) came to 0.05 mg/kg. Further, in series [3] (100 nM, FIG. 6), the “K+ induced release of aspartate” value was “increased” and the “spontaneous release of transmitter (aspartate)” value is given as “without affecting”. In addition, the “release of [3H]aspartate” value in series [4] was “no effect”. In [5], the “50 mM KCl induced release” value is “no effect” and the “basal release” value is “no effect”.

The record behind these values is US6630491B1, “Use of nicotinic analogs for treatment of degenerative diseases of the nervous system” (priority 1991, dated 2003).
